Measured values as given in US5776932A, “1,3,5-tribsubstituted indazole derivatives, processes for preparing, and for pharmacological treatment therewith” (Arzneimittelwerk Dresden G.m.b.H., priority 1996, dated 1998).

What was measured:
[1] = target: T1, arachidonate-5-lipoxygenase (Rattus norvegicus, UniProt P12527); assay: Inhibition of 5-lipoxygenase in prepared macrophages from Wistar rats; format: cell-based; conditions: quadruple determinations, mean IC50, read-out: IC50 (50% inhibition of 5-lipoxygenase)
T1 construct: using prepared macrophages from Wistar rats; endogenous in cells; host or cells: prepared macrophages from Wistar rats
T1 sequence (P12527 1-673): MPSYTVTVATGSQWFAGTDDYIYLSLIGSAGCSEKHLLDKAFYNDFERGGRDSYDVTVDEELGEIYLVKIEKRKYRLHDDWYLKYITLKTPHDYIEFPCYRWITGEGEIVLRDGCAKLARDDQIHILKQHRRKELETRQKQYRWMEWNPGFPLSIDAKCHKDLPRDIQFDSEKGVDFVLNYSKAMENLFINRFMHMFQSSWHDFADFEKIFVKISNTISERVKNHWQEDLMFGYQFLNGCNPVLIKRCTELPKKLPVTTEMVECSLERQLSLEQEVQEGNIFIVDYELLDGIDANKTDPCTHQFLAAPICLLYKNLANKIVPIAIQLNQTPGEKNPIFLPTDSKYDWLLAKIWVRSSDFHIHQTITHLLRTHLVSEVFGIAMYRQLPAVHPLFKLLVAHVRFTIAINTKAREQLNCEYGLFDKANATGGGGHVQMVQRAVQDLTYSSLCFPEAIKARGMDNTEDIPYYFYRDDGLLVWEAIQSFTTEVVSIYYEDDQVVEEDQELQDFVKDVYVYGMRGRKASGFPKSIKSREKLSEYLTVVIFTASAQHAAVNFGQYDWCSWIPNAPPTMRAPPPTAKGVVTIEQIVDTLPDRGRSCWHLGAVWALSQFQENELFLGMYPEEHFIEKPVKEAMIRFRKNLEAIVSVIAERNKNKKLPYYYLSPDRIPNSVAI
Description: Murphy, R. C. and Matthews, W. R., Purification and Characterization of Leukotrienes from Mastocytoma Cells, Methods in Enzymology, 86, pp. 409-416.
Argentiere, D. D., Ritchie, D. M. et al., Tepoxalin: A Dual Cyclooxygenase/5-Lipoxygenase Inhibitor of Arachidonic Acid Metabolism with Potent Anti-inflammatory Activity and a Favorable Gastrointestinal Profile, The Journal of Pharmacology and Experimental Therapeutics, Vol. 271, No. 3, 1399-1408, 1994.
Carter, G. W., Young, P. R. et al., 5-Lipoxygenase Inhibitory activity of Zileuton, The Journal of Pharmacology and Experimental Therapeutics, Vol. 256, No. 3, 1991.
The experiments were all conducted as quadruple determinations, by combining four partial experiments in each case were combined to determine the mean IC50 value.

[2] = tested on: tracheal segments from actively sensitized guinea-pigs; assay: Inhibition of the antigen (ovalbumin)-induced contraction of isolated tracheal segments from actively sensitized guinea-pigs; parameters: species or system guinea-pig; conditions: Cavia porcellus; under mepyramine and indomethacin protection; carbachol = 100%
Experimental: For this purpose, isolated tracheal segments from guinea-pigs actively sensitized against ovalbumin by the s.c. administration of 10 μg of ovalbumin with 1 mg of aluminum hydroxide adjuvant, three weeks before removal of the organ, and a booster dose of the same amount of ovalbumin and aluminum hydroxide s.c. one week before removal of the organ. The segments were placed in organ baths filled with a nutrient solution aerated with carbogen which is a mixture of 95% oxygen and 5% carbon dioxide, and kept at 37° C., and were connected to isometric force transducers. After preincubation with mepyramine to eliminate histamine, and indomethacin for the inhibition of cyclooxygenase, 5×10^-7 mol/l carbachol (carbamylcholine chloride) was added and a contraction was induced. 10 μg/ml ovalbumin as an allergen was then added to the bath liquid and the maximum contraction of the tracheal segments which was thereby induced was correlated with the effect of the carbachol as control (=100%). The test substances were added to the organ bath 30 minutes before the allergen-induced contraction. Table 2 below indicates the IC50 values, i.e. the concentrations which cause a 50% inhibition of the contraction of isolated tracheal segments from the guinea-pig. The IC50 values were determined by testing 3-4 concentrations on 4-8 organs in each case.

late phase eosinophilia = assay: Inhibition of late phase eosinophilia 24 hours after the inhalational ovalbumin challenge on actively sensitized guinea-pigs; format: in vivo; conditions: -2 h; for EOS, B (eosinophils in the group treated with the substance, with challenge): x ± s
Description: Eosinophilic granulocytes play an important part in the transition of allergic diseases, e.g. bronchial asthma, to the chronic stage. Thus the bronchoalveolar lavage fluid (BAL) contains an increased number of eosinophils a few hours after an allergen-induced asthmatic attack. Eosinophils are expected to play an important part in cell damage since they contain histotoxic proteins, like major basic protein (MBP) and eosinophil cation protein (ECP), in their granula. It is also assumed that substances which prevent the infiltration of eosinophils have a therapeutic action against allergic diseases like bronchial asthma.
The inhibition of eosinophil infiltration by the substances was tested in vivo on guinea-pigs actively sensitized against ovalbumin by the substantenous administration of 10 μg of OA, with 1 μg of aluminum hydroxide adjuvant, three weeks before the beginning of the experiment, and a booster dose containing the same amount of OA and aluminum hydroxide was administrated substantaneously one week before the beginning of the experiment. Three weeks after the first sensitization, the animals were placed in a plastic box and exposed to an aerosol of 0.5% OA dissolved in a physiological saline solution. The nebulization time was 20-30 seconds. After 24 hours the animals were intraperitoneally anaesthetized with 1.5 g/kg body weight ethylurethane and a bronchioalveolar lavage was performed with 2×5 ml of physiological saline solution. The lavage fluid was collected and centrifuged at 400 G for 10 minutes and the cell pellet was then resuspended in 1 ml of physiological saline solution. The eosinophils were microscopically counted in a Neubauer chamber after staining using the No. 5877 Becton-Dickinson test kit for eosinophilia. The number of eosinophils was indicated in millions per animal. Each test was also carried out with two control groups with and without antigen challenge.
The percentage inhibition of the eosinophilia in the experimental groups treated with the substance is calculated by the following formula:
(A-C)-(B-C)/(A-C)×100=% inhibition
The test substances were administered orally or intraperitoneally as a triturate in 0.5% 5-hydroxyethylcellulose two hours before the antigen challenge.

[3] = tested on: SRS-A bronchoconstriction in guinea-pigs sensitized with ovalbumin; assay: SRS-A bronchoconstriction in anaesthetized, ovalbumin-sensitized guinea-pigs after inhalation of antigen; format: in vivo; conditions: -2 hrs, 1% OA, 20 inspirations
Experimental: For this purpose, guinea-pigs are actively sensitized against ovalbumin (OA) with 20 μg OA+20 mg Al(OH)3 in 0.5 ml, administered intraperitoneally (i.p.) and a booster dose of the same is administered 14 days later. One week after the booster dose, the animals are i.p. anaesthetized with urethane and connected to an apparatus (Mumed Physiological Recorder 800) for the determination of pulmonary function parameters. The animals are pretreated with mepyramine to antagonize the histamine, with indomethacin to inhibit the formation of prostaglandins, and with propanolol to eliminate β-adrenergic mechanisms. If an allergic reaction is induced after this treatment, the associated bronchospam is extensively attributable to the effect of leukotrienes.
Before the experiment the test substances were administered orally two hours before the challenge. After an equilibration period an asthmatic challenge attack is induced by the nebulization of a 1% ovalbumin solution over 20 inspirations.
The drop in dynamic compliance is used as a suitable and well reproducible parameter for characterizing the action of leukotrienes. Under control conditions, after pretreatment and ovalbumin challenge, guinea-pigs react with a slow drop in compliance of c. 30-40% over 15 minutes.

- IC50 [1]: 0.044 µM
SMILES: COc1ccc2c(c1)c(O)nn2Cc1ccc(OCc2ccc3ccccc3n2)cc1 [Example 50]
- IC50 [2]: 2.9 µM
- % inhibition (eosinophilia) (late phase eosinophilia; 10 mg/kg i.p.): 46.0%
- EOS, B (eosinophils in the group treated with the substance, with challenge) (late phase eosinophilia; 10 mg/kg i.p.): 3.8 ± 2.8 mill./animal
- % inhibition (eosinophilia) (late phase eosinophilia; 30 mg/kg p.o.): 34.0%
- EOS, B (eosinophils in the group treated with the substance, with challenge) (late phase eosinophilia; 30 mg/kg p.o.): 6.0 ± 3.4 mill./animal
- % drop in dyn. compliance ([3]; 5.0 mg/kg oral): 22 ± 10%
- % inhibition ([3]; 5.0 mg/kg oral): 45%
- % drop in dyn. compliance ([3]; 10.0 mg/kg oral): 12 ± 11%
- % inhibition ([3]; 10.0 mg/kg oral): 70%
